Results reported in patent US20060142241A1, “Methods and compositions for reducing neurodegeneration in amyotrophic lateral sclerosis” (priority 2004, published 2006).
In brackets after ≈: the same amount, converted by molar mass.

Assays:
in vitro = conditions: rat/mouse hybrid
Protocol: To evaluate the anti-apoptotic effect of solubilized UDCA against GSNO on wild type cells and cells containing G93A and A4V mutations in hSOD1, wildtype cells, G93A cells, and A4V cells were incubated with 500 μM GSNO for 24 h in order to induce apoptosis and then cell viability of was determined. These apoptosis-induced wildtype cells, G93A cells, and A4V cells were next incubated with 20 μM of solubilized UDCA for 24 h and cell viability was determined again using both the MTT assay and Trypan blue staining.
Cell culture: VSC 4.1. […]
MTT assay and trypan blue staining to evaluate the anti-apoptotic effects of solubilized UDCA and its results; 3-(4,5-dimethylthiazol-2-yl)-2,5-diphenyltetrazolium bromide (MTT) is absorbed into cells and converted to formazan by the action of mitochondrial succinate dehydrogenase. […] Finally, optical density (OD) was read at 540 nm on the ELISA plate reader after particles in the well were dissolved by a microplate mixer for 10 min. Results were calibrated using OD measured without cell culture. […] Unstained live cells were counted on a haemocytometer. Cell viability was expressed as percentages of the cell survival.

[1] = system: G93A cells (VSC 4.1, mutant human Cu/Zn SOD-1); assay: DAPI staining to evaluate apoptosis by GSNO; format: cell-based; conditions: 500 μM GSNO, 24 h
Protocol: (§1) DAPI staining to evaluate apoptosis by GSNO and its results; 4′,6-Diamidino-2-phenylindole dihydrochloride (DAPI) staining was performed to evaluate apoptosis as follows. After differentiation, the wildtype (control), G93A, and A4V cells were incubated with without 500 μM GSNO for 24 h; the cells were then centrifuged at 265 g for 2 min, and 4% neutral buffered formalin (100 μL) was added to the cell pellet. A 50 μL aliquot of the cell suspension was applied to a glass slide and dried at room temperature. The fixed cells were washed in PBS, air dried, and stained for 20 min with the DNA-specific fluorochrome, DAPI (Sigma, Saint Louis, Mo., USA). The adhered cells were rinsed with PBS, air dried, and mounted with 90% glycerol. The slides were observed under Olympus fluorescence microscopy(pictures).

[2] = system: wild type cells (VSC 4.1, wild type human Cu/Zn SOD-1); assay: DAPI staining to evaluate apoptosis by GSNO; format: cell-based; conditions: 500 μM GSNO, 24 h
Protocol: as §1

[3] = system: A4V cells (VSC 4.1, mutant human Cu/Zn SOD-1); assay: DAPI staining to evaluate apoptosis by GSNO; format: cell-based; conditions: 500 μM GSNO, 24 h
Protocol: as §1

[4] = protonated form; cited from earlier work
[5] = oral administration; cited from earlier work

For N[C@@H](CCC(=O)N[C@@H](CSN=O)C(=O)NCC(=O)O)C(=O)O [GSNO, S-nitrosoglutathione], the viability at 24 h, 500 μM (in vitro) was 81%, the “percent of apoptotic cells” value [1] was 19% and the “percent of apoptotic cells” value [2] was 8%. The “percent of apoptotic cells” value [3] was 25%.
In the case of C[C@H](CCC(=O)NCCS(=O)(=O)O)[C@H]1CC[C@H]2[C@@H]3[C@@H](O)C[C@@H]4C[C@H](O)CC[C@]4(C)[C@H]3CC[C@]12C [TUDCA, tauroursodeoxycholic acid], the solubility [4] is listed as 450 µM (≈ 225 µg/mL).
For C[C@H](CCC(=O)O)[C@H]1CC[C@H]2[C@@H]3[C@@H](O)C[C@@H]4C[C@H](O)CC[C@]4(C)[C@H]3CC[C@]12C [UDCA, Ursodeoxycholic acid], the “fraction of an ingested dose absorbed in the colon” value [5] is given as 20% and the solubility [4] is given as “about 0.05 mM”.
